# From the kinase profiling compilation of Christmann-Franck et al. (2016)
# Columns and labels:
# Assay in all cases: KINOMEscan competition binding
# Details in all cases: compound 10.0 µM
# BRAF (human) = BRAF (human) (UniProt P15056)
# CDK13 (human) = CDK13 (human) (UniProt Q14004)
# CDK4 CCND3 (human) = CDK4 CCND3 (human) (UniProt P11802+P30281)
# CDKL3 (human) = CDKL3 (human) (UniProt Q8IVW4)
# CPK1 (P.falciparum) = tested on: CPK1 (P.falciparum)
# CRK2 (P.falciparum) = CRK2 (P.falciparum) (UniProt P61075)
# Sequence of CRK2 (P.falciparum) (P61075 whole entry, looked up): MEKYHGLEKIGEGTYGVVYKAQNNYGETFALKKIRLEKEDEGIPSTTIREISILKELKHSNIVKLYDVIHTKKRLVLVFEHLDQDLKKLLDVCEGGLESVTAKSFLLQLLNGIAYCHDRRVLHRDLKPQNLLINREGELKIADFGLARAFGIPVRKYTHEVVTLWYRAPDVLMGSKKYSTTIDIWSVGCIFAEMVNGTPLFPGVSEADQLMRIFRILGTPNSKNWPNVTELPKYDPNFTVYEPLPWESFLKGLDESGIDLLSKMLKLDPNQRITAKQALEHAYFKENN
# DDR1 (human) = DDR1 (human) (UniProt Q08345)
# DSTYK (human) = DSTYK (human) (UniProt Q6XUX3)
# DYRK1A (human) = DYRK1A (human) (UniProt Q13627)
# DYRK2 (human) = DYRK2 (human) (UniProt Q92630)
# EGFR (human) = EGFR (human) (UniProt P00533)
# [1] = tested on: EGFR (human), P00533 [746-750 del]
# [2] = tested on: EGFR (human), P00533 [G719S]
# ERBB3 (human) = ERBB3 (human) (UniProt P21860)
# ERN1 (human) = ERN1 (human) (UniProt O75460)
# [3] = tested on: FLT3 (human), P36888 [K663Q]
# GRK7 (human) = GRK7 (human) (UniProt Q8WTQ7)
# HIPK4 (human) = HIPK4 (human) (UniProt Q8NE63)
# ICK (human) = ICK (human) (UniProt Q9UPZ9)
# Sequence of ICK (human) (Q9UPZ9 whole entry, looked up): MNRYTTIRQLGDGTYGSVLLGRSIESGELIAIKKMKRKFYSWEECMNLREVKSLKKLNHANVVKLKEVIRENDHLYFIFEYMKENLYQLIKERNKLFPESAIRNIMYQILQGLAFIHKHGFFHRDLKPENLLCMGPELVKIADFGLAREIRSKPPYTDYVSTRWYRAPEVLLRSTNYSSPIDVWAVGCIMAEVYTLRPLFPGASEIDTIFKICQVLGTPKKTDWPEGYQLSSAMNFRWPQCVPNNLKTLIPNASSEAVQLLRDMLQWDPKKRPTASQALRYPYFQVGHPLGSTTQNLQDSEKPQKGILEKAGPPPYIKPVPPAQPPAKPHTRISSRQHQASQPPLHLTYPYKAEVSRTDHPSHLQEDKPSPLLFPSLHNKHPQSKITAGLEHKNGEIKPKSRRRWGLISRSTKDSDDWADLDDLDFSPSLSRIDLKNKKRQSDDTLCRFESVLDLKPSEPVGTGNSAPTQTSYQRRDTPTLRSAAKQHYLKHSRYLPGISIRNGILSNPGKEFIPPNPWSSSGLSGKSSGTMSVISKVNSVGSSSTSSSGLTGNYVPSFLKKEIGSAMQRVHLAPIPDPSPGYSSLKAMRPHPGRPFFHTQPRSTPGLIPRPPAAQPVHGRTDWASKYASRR
# KIT (human) = KIT (human) (UniProt P10721)
# MAP3K13 (human) = MAP3K13 (human) (UniProt O43283)
# Sequence of MAP3K13 (human) (O43283 whole entry, looked up): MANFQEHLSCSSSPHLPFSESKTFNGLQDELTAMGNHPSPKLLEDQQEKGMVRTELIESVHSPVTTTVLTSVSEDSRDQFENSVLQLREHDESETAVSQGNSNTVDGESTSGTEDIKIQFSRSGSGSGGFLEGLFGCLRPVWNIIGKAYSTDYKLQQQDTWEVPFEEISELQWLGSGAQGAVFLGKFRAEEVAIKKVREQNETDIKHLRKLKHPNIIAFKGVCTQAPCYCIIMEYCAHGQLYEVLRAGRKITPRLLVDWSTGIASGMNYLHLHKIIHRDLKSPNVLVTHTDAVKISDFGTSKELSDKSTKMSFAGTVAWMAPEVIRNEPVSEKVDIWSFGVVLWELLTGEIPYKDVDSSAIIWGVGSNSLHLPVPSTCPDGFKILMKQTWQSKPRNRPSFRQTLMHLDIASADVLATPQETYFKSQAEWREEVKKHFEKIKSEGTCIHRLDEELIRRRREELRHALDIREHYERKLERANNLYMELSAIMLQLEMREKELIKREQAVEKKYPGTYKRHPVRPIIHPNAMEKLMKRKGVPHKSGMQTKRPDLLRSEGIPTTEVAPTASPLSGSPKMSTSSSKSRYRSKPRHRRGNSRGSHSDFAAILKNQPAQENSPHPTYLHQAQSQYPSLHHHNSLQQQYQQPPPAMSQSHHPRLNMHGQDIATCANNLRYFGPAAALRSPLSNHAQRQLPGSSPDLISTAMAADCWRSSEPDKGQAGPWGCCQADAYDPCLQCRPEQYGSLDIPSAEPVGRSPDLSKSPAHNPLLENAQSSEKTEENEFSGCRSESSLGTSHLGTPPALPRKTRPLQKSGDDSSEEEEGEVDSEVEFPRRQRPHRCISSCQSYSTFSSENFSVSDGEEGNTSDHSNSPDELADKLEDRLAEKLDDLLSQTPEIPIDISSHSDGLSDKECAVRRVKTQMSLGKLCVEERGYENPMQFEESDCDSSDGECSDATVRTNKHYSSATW
# MAST1 (human) = MAST1 (human) (UniProt Q9Y2H9)
# NEK3 (human) = NEK3 (human) (UniProt P51956)
# NIM1 (human) = NIM1 (human) (UniProt Q8IY84)
# OXSR1 (human) = OXSR1 (human) (UniProt O95747)
# PIK3C2G (human) = PIK3C2G (human) (UniProt O75747)
# [4] = tested on: PIK3CA (human), P42336 [C420R]
# [5] = tested on: PIK3CA (human), P42336 [E545K]
# [6] = tested on: PIK3CA (human), P42336 [H1047Y]
# [7] = tested on: PIK3CA (human), P42336 [Q546K]
# PIK3CG (human) = PIK3CG (human) (UniProt P48736)
# PIP4K2C (human) = PIP4K2C (human) (UniProt Q8TBX8)
# PIP5K1C (human) = PIP5K1C (human) (UniProt O60331)
# PRKCI (human) = PRKCI (human) (UniProt P41743)
# RPS6KB1 (human) = RPS6KB1 (human) (UniProt P23443)
# SBK1 (human) = SBK1 (human) (UniProt Q52WX2)
# SGK3 (human) = SGK3 (human) (UniProt Q96BR1)
# Sequence of SGK3 (human) (Q96BR1 whole entry, looked up): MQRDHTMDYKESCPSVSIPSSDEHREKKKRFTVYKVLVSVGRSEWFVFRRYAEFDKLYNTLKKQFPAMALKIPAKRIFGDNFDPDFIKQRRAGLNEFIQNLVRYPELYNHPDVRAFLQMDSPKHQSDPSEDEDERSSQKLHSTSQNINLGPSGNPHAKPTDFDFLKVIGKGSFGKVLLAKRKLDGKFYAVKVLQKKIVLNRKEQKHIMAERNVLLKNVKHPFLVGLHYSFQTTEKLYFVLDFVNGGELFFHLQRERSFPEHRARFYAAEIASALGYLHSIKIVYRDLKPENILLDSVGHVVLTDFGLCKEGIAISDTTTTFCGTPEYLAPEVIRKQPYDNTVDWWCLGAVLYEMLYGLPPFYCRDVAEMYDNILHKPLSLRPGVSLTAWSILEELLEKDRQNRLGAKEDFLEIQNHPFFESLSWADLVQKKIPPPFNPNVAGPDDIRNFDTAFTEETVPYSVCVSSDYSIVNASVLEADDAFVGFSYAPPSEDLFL
# STK39 (human) = STK39 (human) (UniProt Q9UEW8)
# TIE1 (human) = TIE1 (human) (UniProt P35590)
# Sequence of TIE1 (human) (P35590 whole entry, looked up): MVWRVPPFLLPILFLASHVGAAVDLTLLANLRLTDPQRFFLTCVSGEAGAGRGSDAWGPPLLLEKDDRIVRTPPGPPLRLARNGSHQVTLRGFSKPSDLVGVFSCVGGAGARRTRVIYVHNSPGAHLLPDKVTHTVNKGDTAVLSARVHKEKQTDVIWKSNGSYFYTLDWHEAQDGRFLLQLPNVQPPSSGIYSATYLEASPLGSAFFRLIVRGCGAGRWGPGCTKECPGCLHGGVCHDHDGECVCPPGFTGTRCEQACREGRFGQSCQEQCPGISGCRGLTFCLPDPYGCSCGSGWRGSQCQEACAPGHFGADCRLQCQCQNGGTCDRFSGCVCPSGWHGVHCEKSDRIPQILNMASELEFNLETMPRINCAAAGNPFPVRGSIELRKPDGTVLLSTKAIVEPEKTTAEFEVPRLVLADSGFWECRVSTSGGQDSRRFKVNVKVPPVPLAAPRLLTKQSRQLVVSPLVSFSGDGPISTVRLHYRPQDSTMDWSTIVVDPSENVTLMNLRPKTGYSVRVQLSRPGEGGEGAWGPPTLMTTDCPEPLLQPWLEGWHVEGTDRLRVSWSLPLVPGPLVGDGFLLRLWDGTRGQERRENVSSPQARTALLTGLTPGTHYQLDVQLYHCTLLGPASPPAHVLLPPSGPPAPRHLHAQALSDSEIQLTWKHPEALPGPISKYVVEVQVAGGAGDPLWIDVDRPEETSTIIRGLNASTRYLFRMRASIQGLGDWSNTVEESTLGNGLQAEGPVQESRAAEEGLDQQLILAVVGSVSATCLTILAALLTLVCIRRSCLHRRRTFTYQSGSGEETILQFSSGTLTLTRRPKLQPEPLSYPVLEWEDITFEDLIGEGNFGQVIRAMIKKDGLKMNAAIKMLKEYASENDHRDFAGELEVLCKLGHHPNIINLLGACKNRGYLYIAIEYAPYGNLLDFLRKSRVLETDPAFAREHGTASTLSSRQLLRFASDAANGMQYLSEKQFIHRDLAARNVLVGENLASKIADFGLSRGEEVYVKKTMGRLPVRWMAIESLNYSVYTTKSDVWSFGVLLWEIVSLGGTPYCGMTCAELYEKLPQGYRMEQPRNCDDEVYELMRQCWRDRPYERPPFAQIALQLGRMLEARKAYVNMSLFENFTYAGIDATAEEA
# YSK4 (human) = YSK4 (human) (UniProt Q56UN5)
# Sequence of YSK4 (human) (Q56UN5 whole entry, looked up): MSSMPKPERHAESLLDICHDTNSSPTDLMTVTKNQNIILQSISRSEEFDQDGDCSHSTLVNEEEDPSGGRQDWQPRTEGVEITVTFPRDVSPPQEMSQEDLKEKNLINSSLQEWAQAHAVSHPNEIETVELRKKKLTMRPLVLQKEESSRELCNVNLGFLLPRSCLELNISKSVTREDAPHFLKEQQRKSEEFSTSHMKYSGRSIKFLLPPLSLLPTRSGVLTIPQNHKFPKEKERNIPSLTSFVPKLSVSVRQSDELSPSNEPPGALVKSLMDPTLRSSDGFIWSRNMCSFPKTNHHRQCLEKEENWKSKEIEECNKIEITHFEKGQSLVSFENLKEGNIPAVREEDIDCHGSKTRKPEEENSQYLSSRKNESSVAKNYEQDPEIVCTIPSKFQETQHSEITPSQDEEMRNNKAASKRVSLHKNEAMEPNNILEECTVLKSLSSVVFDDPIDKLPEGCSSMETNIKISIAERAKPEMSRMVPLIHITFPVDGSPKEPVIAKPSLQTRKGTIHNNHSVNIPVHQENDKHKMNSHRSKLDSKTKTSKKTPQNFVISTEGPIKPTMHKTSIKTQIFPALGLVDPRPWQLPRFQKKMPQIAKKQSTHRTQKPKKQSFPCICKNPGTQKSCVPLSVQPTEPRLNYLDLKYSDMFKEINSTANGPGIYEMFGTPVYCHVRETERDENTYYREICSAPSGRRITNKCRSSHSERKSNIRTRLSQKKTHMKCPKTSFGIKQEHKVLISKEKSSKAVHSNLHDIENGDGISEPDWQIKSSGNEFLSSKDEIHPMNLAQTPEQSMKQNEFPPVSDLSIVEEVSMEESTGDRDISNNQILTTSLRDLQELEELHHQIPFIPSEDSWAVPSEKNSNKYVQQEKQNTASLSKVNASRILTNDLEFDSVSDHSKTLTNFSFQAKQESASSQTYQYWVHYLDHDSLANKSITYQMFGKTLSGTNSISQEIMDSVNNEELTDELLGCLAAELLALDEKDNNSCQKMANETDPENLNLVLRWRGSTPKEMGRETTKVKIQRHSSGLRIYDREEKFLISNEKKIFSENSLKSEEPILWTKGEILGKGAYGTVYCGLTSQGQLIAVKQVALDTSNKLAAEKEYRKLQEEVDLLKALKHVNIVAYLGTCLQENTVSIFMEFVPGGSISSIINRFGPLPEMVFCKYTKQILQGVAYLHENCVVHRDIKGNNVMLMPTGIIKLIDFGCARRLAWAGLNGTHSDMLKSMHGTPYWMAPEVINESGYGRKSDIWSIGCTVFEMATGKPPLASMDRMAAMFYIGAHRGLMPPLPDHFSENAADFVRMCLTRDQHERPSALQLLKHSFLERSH
smiles,measurement,setting,value
O=C1Nc2ccc(I)cc2/C1=C/c1cc(Br)c(O)c(Br)c1,"kinase still bound, per cent of control",BRAF (human),0.9%
same,"kinase still bound, per cent of control",CDK13 (human),100%
same,"kinase still bound, per cent of control",CDK4 CCND3 (human),99%
same,"kinase still bound, per cent of control",CDKL3 (human),88%
same,"kinase still bound, per cent of control",CPK1 (P.falciparum),24%
same,"kinase still bound, per cent of control",CRK2 (P.falciparum),90%
same,"kinase still bound, per cent of control",DDR1 (human),85%
same,"kinase still bound, per cent of control",DSTYK (human),66%
same,"kinase still bound, per cent of control",DYRK1A (human),26%
same,"kinase still bound, per cent of control",DYRK2 (human),54%
same,"kinase still bound, per cent of control",EGFR (human),56%
same,"kinase still bound, per cent of control",[1],36%
same,"kinase still bound, per cent of control",[2],84%
same,"kinase still bound, per cent of control",ERBB3 (human),87%
same,"kinase still bound, per cent of control",ERN1 (human),57%
same,"kinase still bound, per cent of control",[3],11%
same,"kinase still bound, per cent of control",GRK7 (human),73%
same,"kinase still bound, per cent of control",HIPK4 (human),21%
same,"kinase still bound, per cent of control",ICK (human),88%
same,"kinase still bound, per cent of control",KIT (human),3.4%
same,"kinase still bound, per cent of control",MAP3K13 (human),100%
same,"kinase still bound, per cent of control",MAST1 (human),100%
same,"kinase still bound, per cent of control",NEK3 (human),95%
same,"kinase still bound, per cent of control",NIM1 (human),100%
same,"kinase still bound, per cent of control",OXSR1 (human),100%
same,"kinase still bound, per cent of control",PIK3C2G (human),44%
same,"kinase still bound, per cent of control",[4],100%
same,"kinase still bound, per cent of control",[5],100%
same,"kinase still bound, per cent of control",[6],76%
same,"kinase still bound, per cent of control",[7],97%
same,"kinase still bound, per cent of control",PIK3CG (human),71%
same,"kinase still bound, per cent of control",PIP4K2C (human),100%
same,"kinase still bound, per cent of control",PIP5K1C (human),19%
same,"kinase still bound, per cent of control",PRKCI (human),100%
same,"kinase still bound, per cent of control",RPS6KB1 (human),81%
same,"kinase still bound, per cent of control",SBK1 (human),85%
same,"kinase still bound, per cent of control",SGK3 (human),73%
same,"kinase still bound, per cent of control",STK39 (human),100%
same,"kinase still bound, per cent of control",TIE1 (human),86%
same,"kinase still bound, per cent of control",YSK4 (human),0.4%
